Converted amounts (≈) assume the structure as drawn. Where a SMILES comes first, the peptide text is derived from it. Bridges are numbered along the chain shown (N, C = ends). [ ]: non-standard residue; d: D form. The star is where a group is joined. Quinoline3carbonyl = O=C(c1cnc2ccccc2c1)*; X55 = O=C(c1ccc(-c2ccc(Cl)nc2)cc1)*; X45 = O=C(c1cc(C(F)(F)F)ccn1)*; X23 = O=C(c1cc2ccccc2[nH]1)*; X17 = O=C(c1ncc(Br)cc1Cl)*; X29 = O=C(c1cc(Cl)ccn1)*; Dab = NCC[C@H](N)C(=O)O; X10 = O=C(c1cc(Br)cs1)*; Abu = CC[C@H](N)C(=O)O; Dap = NC[C@H](N)C(=O)O Where only a bound is given, the exact number is not on record here.

Holding throughout (assay type): cell-based
In experiment [1] the test system is Acinetobacter baumannii ATCC 17978. Conditions: ATCC 17978. The method, boiled down:
(§1)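 Values are MICs of the lipopeptide trifluoroacetic acid salts. Dilution series were set up in CAMHB as CLSI M100-S24 specifies.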

For experiment [2], the system named is Acinetobacter baumannii FADDI-AB034. The following applies: FADDI-AB034. The method, boiled down:
as §1

For experiment [3], the system named is Enterobacter cloacae FADDI-EC001. The following applies: FADDI-EC001. The method, boiled down:
(§2)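 Standard CLSI (M100-S24) microdilution in cation-adjusted broth gives the MIC for each strain. Test compounds are TFA-salt lipopeptides; the comparator is polymyxin B sulphate.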

Experiment [4] relates to Enterobacter cloacae FADDI-EC003. The following applies: FADDI-EC003. The method, boiled down:
as §1

Experiment [5] concerns Enterobacter cloacae FADDI-EC006. Conditions: FADDI-EC006. The method, boiled down:
as §1

The subject of experiment [6] is Klebsiella pneumoniae FADDI-KP022. The following applies: FADDI-KP022. The method, boiled down:
as §1

Experiment [7] deals with Klebsiella pneumoniae FADDI-KP032. Conditions: FADDI-KP032. The method, boiled down: as §1
In experiment [8] the test system is Klebsiella pneumoniae Kp BM1. Conditions: Kp BM1. The method, boiled down:
as §2

For experiment [9], the system named is Pseudomonas aeruginosa ATCC 27853. The following applies: ATCC 27853. The method, boiled down:
as §1

The test system of experiment [10] is Pseudomonas aeruginosa FADDI-PA01. The following applies: FADDI-. Summed up: as §1
Experiment [11] concerns Pseudomonas aeruginosa FADDI-PA022. Conditions: FADDI-PA022. The method, boiled down:
as §1

Experiment [12] deals with Pseudomonas aeruginosa FADDI-PA038. The following applies: FADDI-PA038. Summed up: as §1
Experiment [13] deals with Acinetobacter baumannii FADDI-AB030. The experiment in a line: microbe, parasite or virus in culture. The following applies: FADDI-AB030. The method, boiled down:
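Broth microdilution MIC in cation-adjusted Mueller-Hinton broth per CLSI M100-S24; lipopeptides tested as TFA salts. FADDI-AB030 is a multidrug-resistant clinical isolate. Polymyxin B sulphate served as control.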

Take `CC[C@@H]1NC(=O)[C@@H](CC(C)C)NC(=O)[C@H](CCN)NC(=O)[C@@H](NC(=O)[C@H](CN)NC(=O)[C@@H](NC(=O)[C@H](CCN)NC(=O)c2cnc3ccccc3c2)[C@@H](C)O)CCNC(=O)[C@H]([C@@H](C)O)NC(=O)[C@H](CCN)NC(=O)[C@H](CCN)NC1=O` [Compound 52] (Quinoline3carbonyl-[Dab]T[Dap][Dab][Dab][dL][Abu][Dab][Dab]T; lactam 4-C): the Minimum inhibitory concentration in experiment [1] is 2 µg/mL (≈ 1.75 µM); in [2] it was 1 µg/mL (≈ 0.875 µM); in experiment [3] it was less than 0.125 µg/mL; in experiment [4], 0.5 µg/mL (≈ 0.438 µM); in experiment [5], 1 µg/mL (≈ 0.875 µM); in experiment [6], less than 0.125 µg/mL. Moreover, the Minimum inhibitory concentration in experiment [7] was less than 0.125 µg/mL; in [8], 0.5 µg/mL (≈ 0.438 µM); in experiment [9] it was 0.5 µg/mL (≈ 0.438 µM); in [10], 0.5 µg/mL (≈ 0.438 µM); in [11], 0.5 µg/mL (≈ 0.438 µM); in [12], 0.25 µg/mL (≈ 0.219 µM). This compound yielded a Minimum inhibitory concentration in [13] of 0.5 µg/mL (≈ 0.438 µM).

For `CC[C@@H]1NC(=O)[C@@H](CC(C)C)NC(=O)[C@H](CCN)NC(=O)[C@@H](NC(=O)[C@H](CN)NC(=O)[C@@H](NC(=O)[C@H](CCN)NC(=O)c2cc(Cl)ccn2)[C@@H](C)O)CCNC(=O)[C@H]([C@@H](C)O)NC(=O)[C@H](CCN)NC(=O)[C@H](CCN)NC1=O` [Compound 26] (X29-[Dab]T[Dap][Dab][Dab][dL][Abu][Dab][Dab]T; lactam 4-C), the Minimum inhibitory concentration in [1] was 0.5 µg/mL (≈ 0.444 µM); in [2], 0.5 µg/mL (≈ 0.444 µM); in [3] it was 0.25 µg/mL (≈ 0.222 µM); in [4], less than 0.125 µg/mL; in [5], 2 µg/mL (≈ 1.78 µM); in experiment [6], less than 0.125 µg/mL. Moreover, the Minimum inhibitory concentration in [7] is 0.25 µg/mL (≈ 0.222 µM); in [8], 0.25 µg/mL (≈ 0.222 µM); in experiment [9], 0.25 µg/mL (≈ 0.222 µM); in experiment [10], 0.25 µg/mL (≈ 0.222 µM); in experiment [11], 0.25 µg/mL (≈ 0.222 µM); in experiment [12], 0.5 µg/mL (≈ 0.444 µM). The compound further registered a Minimum inhibitory concentration in [13] of 0.5 µg/mL (≈ 0.444 µM).

For the compound `CC[C@@H]1NC(=O)[C@@H](CC(C)C)NC(=O)[C@H](CCN)NC(=O)[C@@H](NC(=O)[C@H](CN)NC(=O)[C@@H](NC(=O)[C@H](CCN)NC(=O)c2cc(Br)cs2)[C@@H](C)O)CCNC(=O)[C@H]([C@@H](C)O)NC(=O)[C@H](CCN)NC(=O)[C@H](CCN)NC1=O` [Compound 88] (X10-[Dab]T[Dap][Dab][Dab][dL][Abu][Dab][Dab]T; lactam 4-C), the Minimum inhibitory concentration was 0.5 µg/mL (≈ 0.425 µM) in experiment [1]; 0.5 µg/mL (≈ 0.425 µM) in experiment [2]; less than 0.125 µg/mL in experiment [3]; 0.5 µg/mL (≈ 0.425 µM) in experiment [4]; 0.5 µg/mL (≈ 0.425 µM) in experiment [5]; less than 0.125 µg/mL in experiment [6]. For the same compound, the Minimum inhibitory concentration in experiment [7] amounted to 0.5 µg/mL (≈ 0.425 µM); in experiment [8] it was 0.25 µg/mL (≈ 0.213 µM); in experiment [9], 0.5 µg/mL (≈ 0.425 µM); in experiment [10] it was 0.5 µg/mL (≈ 0.425 µM); in [11] it was 0.5 µg/mL (≈ 0.425 µM); in [12], 0.5 µg/mL (≈ 0.425 µM). The compound further displayed a Minimum inhibitory concentration in [13] of 0.5 µg/mL (≈ 0.425 µM).

For `CC(C)C[C@H]1NC(=O)[C@H](CCN)NC(=O)[C@@H](NC(=O)[C@H](CN)NC(=O)[C@@H](NC(=O)[C@H](CCN)NC(=O)c2ccc(-c3ccc(Cl)nc3)cc2)[C@@H](C)O)CCNC(=O)[C@H]([C@@H](C)O)NC(=O)[C@H](CCN)NC(=O)[C@H](CCN)NC(=O)[C@H]([C@@H](C)O)NC1=O` [Compound 16] (X55-[Dab]T[Dap][Dab][Dab][dL]T[Dab][Dab]T; lactam 4-C), the Minimum inhibitory concentration was 2 µg/mL (≈ 1.64 µM) in experiment [1]; 4 µg/mL (≈ 3.28 µM) in experiment [2]; 0.5 µg/mL (≈ 0.41 µM) in experiment [3]; less than 0.125 µg/mL in experiment [4]; 0.5 µg/mL (≈ 0.41 µM) in [5]; less than 0.125 µg/mL in experiment [6]. In addition, the Minimum inhibitory concentration in [7] was 0.25 µg/mL (≈ 0.205 µM); in [8], 2 µg/mL (≈ 1.64 µM); in experiment [9], 0.5 µg/mL (≈ 0.41 µM); in [10] it was 0.5 µg/mL (≈ 0.41 µM); in experiment [11] it was 1 µg/mL (≈ 0.82 µM); in experiment [12], 1 µg/mL (≈ 0.82 µM). The same compound registered a Minimum inhibitory concentration in experiment [13] of 8 µg/mL (≈ 6.56 µM).

On to `CC[C@@H]1NC(=O)[C@@H](CC(C)C)NC(=O)[C@H](CCN)NC(=O)[C@@H](NC(=O)[C@H](CN)NC(=O)[C@@H](NC(=O)[C@H](CCN)NC(=O)c2cc(C(F)(F)F)ccn2)[C@@H](C)O)CCNC(=O)[C@H]([C@@H](C)O)NC(=O)[C@H](CCN)NC(=O)[C@H](CCN)NC1=O` [Compound 21] (X45-[Dab]T[Dap][Dab][Dab][dL][Abu][Dab][Dab]T; lactam 4-C), for which the Minimum inhibitory concentration in [1] is 0.25 µg/mL (≈ 0.215 µM); in experiment [2], 0.25 µg/mL (≈ 0.215 µM); in experiment [3], less than 0.125 µg/mL; in experiment [4] it was 0.25 µg/mL (≈ 0.215 µM); in experiment [5] it was 1 µg/mL (≈ 0.862 µM); in [6], less than 0.125 µg/mL. Moreover, the Minimum inhibitory concentration was less than 0.125 µg/mL in [7]; less than 0.125 µg/mL in [8]; 0.25 µg/mL (≈ 0.215 µM) in experiment [9]; 0.25 µg/mL (≈ 0.215 µM) in experiment [10]; 0.25 µg/mL (≈ 0.215 µM) in [11]; 0.5 µg/mL (≈ 0.431 µM) in experiment [12]. The Minimum inhibitory concentration in [13] came to 0.25 µg/mL (≈ 0.215 µM).

As for `CC[C@@H]1NC(=O)[C@@H](CC(C)C)NC(=O)[C@H](CCN)NC(=O)[C@@H](NC(=O)[C@H](CN)NC(=O)[C@@H](NC(=O)[C@H](CCN)NC(=O)c2cc3ccccc3[nH]2)[C@@H](C)O)CCNC(=O)[C@H]([C@@H](C)O)NC(=O)[C@H](CCN)NC(=O)[C@H](CCN)NC1=O` [Compound 56] (X23-[Dab]T[Dap][Dab][Dab][dL][Abu][Dab][Dab]T; lactam 4-C), the Minimum inhibitory concentration in [1] is 0.25 µg/mL (≈ 0.221 µM); in [2] it was less than 0.125 µg/mL; in [3], less than 0.125 µg/mL; in experiment [4], 0.5 µg/mL (≈ 0.442 µM); in experiment [5], 0.5 µg/mL (≈ 0.442 µM); in experiment [6] it was less than 0.125 µg/mL. For the same compound, the Minimum inhibitory concentration in experiment [7] is less than 0.125 µg/mL; in [8], 0.25 µg/mL (≈ 0.221 µM); in experiment [9] it was 0.25 µg/mL (≈ 0.221 µM); in experiment [10], less than 0.125 µg/mL; in [11], 0.25 µg/mL (≈ 0.221 µM); in [12] it was 0.5 µg/mL (≈ 0.442 µM). Besides, the Minimum inhibitory concentration in experiment [13] was determined as 0.25 µg/mL (≈ 0.221 µM).

With `CC[C@@H]1NC(=O)[C@@H](CC(C)C)NC(=O)[C@H](CCN)NC(=O)[C@@H](NC(=O)[C@H](CN)NC(=O)[C@@H](NC(=O)[C@H](CCN)NC(=O)c2ncc(Br)cc2Cl)[C@@H](C)O)CCNC(=O)[C@H]([C@@H](C)O)NC(=O)[C@H](CCN)NC(=O)[C@H](CCN)NC1=O` [Compound 33] (X17-[Dab]T[Dap][Dab][Dab][dL][Abu][Dab][Dab]T; lactam 4-C), the Minimum inhibitory concentration in [1] was 0.5 µg/mL (≈ 0.415 µM); in [2], 0.5 µg/mL (≈ 0.415 µM); in experiment [3] it was less than 0.125 µg/mL; in [4], less than 0.125 µg/mL; in experiment [5], less than 0.125 µg/mL; in experiment [6], less than 0.125 µg/mL. The Minimum inhibitory concentration was less than 0.125 µg/mL in experiment [7]; less than 0.125 µg/mL in experiment [8]; 0.25 µg/mL (≈ 0.207 µM) in experiment [9]; 0.25 µg/mL (≈ 0.207 µM) in experiment [10]; 0.25 µg/mL (≈ 0.207 µM) in experiment [11]; 0.5 µg/mL (≈ 0.415 µM) in [12]. The compound also returned a Minimum inhibitory concentration in [13] of 0.5 µg/mL (≈ 0.415 µM).

Source of the values: US11225505B2, “Antimicrobial polymyxin derivative compounds” (MONASH UNIVERSITY, priority 2015, dated 2022).
